Experimental data as given in ChEMBL document CHEMBL3588745, “Optimization of ADME Properties for Sulfonamides Leading to the Discovery of a T-Type Calcium Channel Blocker, ABT-639” (ACS Med Chem Lett, 2015).
Several values for one entry are separate records, joined by “and”; a condition that tells them apart may be missing. Equal entries are not always repeated. Activity calls are given as the source filed them. No cut-off for these calls is given here.

Tests used:
[1] = molecular target: T1, Voltage-dependent T-type calcium channel subunit alpha-1H (Homo sapiens, UniProt O95180); test: Inhibition of human recombinant Cav3.2 channel
[2] = Plasma clearance in rat at 5 uM/kg, iv or 30 uM/kg, po; type: ADME, organism-based
[3] = molecular target: T1, Voltage-dependent T-type calcium channel subunit alpha-1H; test: Inhibition of human recombinant Cav3.2 channel at 10 uM
[4] = Stability in rat liver microsomes assessed as compound remaining at 1 uM after 30 mins; type: ADME; details: read-out: Stability
[5] = Stability in human liver microsomes assessed as compound remaining at 1 uM after 30 mins; type: ADME; details: read-out: Stability
[6] = Terminal phase volume of distribution in rat at 5 uM/kg, iv or 30 uM/kg, po; type: ADME, organism-based; details: in vivo, read-out: Vbeta
[7] = Stability in dog liver microsomes assessed as compound remaining at 1 uM after 30 mins; type: ADME, Canis lupus familiaris; details: read-out: Stability
[8] = Stability in monkey liver microsomes assessed as compound remaining at 1 uM after 30 mins; type: ADME, Macaca mulatta; details: rhesus monkey, read-out: Stability
[9] = molecular target: Voltage-dependent T-type calcium channel subunit alpha-1H (Rattus norvegicus, UniProt Q9EQ60); test: Inhibition of Cav3.2 channel in rat DRG neurons assessed as reduction in LVA currents
[10] = Aqueous solubility in phosphate buffer at pH 7.4; type: physicochemical
[11] = Solubility in 0.1 HCl solution; type: physicochemical
[12] = Protein binding in rat; type: ADME, organism-based; details: plasma, read-out: PB (converted)
[13] = Protein binding in human; type: ADME, organism-based; details: plasma, read-out: PB (converted)
[14] = molecular target: T2, Nuclear receptor subfamily 1 group I member 2 (Homo sapiens, UniProt O75469); test: Activation of PXR (unknown origin) assessed as induction of CYP3A4; type: ADME
T2 sequence (O75469 whole entry): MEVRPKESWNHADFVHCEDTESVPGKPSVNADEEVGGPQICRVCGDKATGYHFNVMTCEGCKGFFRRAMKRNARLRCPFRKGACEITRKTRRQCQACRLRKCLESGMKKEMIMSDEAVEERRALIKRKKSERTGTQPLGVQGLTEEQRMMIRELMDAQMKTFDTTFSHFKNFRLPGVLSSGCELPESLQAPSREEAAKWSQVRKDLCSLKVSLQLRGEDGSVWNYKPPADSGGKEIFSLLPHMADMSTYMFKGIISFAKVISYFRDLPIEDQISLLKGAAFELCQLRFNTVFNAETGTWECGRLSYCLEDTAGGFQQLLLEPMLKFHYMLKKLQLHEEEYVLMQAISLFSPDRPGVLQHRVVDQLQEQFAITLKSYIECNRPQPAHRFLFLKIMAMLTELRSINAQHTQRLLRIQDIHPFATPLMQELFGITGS

[15] = molecular target: T3, Aryl hydrocarbon receptor (Homo sapiens, UniProt P35869); test: Activation of aryl hydrocarbon receptor (unknown origin) assessed as induction of CYP1A2 mRNA expression; type: ADME
T3 sequence (P35869 whole entry): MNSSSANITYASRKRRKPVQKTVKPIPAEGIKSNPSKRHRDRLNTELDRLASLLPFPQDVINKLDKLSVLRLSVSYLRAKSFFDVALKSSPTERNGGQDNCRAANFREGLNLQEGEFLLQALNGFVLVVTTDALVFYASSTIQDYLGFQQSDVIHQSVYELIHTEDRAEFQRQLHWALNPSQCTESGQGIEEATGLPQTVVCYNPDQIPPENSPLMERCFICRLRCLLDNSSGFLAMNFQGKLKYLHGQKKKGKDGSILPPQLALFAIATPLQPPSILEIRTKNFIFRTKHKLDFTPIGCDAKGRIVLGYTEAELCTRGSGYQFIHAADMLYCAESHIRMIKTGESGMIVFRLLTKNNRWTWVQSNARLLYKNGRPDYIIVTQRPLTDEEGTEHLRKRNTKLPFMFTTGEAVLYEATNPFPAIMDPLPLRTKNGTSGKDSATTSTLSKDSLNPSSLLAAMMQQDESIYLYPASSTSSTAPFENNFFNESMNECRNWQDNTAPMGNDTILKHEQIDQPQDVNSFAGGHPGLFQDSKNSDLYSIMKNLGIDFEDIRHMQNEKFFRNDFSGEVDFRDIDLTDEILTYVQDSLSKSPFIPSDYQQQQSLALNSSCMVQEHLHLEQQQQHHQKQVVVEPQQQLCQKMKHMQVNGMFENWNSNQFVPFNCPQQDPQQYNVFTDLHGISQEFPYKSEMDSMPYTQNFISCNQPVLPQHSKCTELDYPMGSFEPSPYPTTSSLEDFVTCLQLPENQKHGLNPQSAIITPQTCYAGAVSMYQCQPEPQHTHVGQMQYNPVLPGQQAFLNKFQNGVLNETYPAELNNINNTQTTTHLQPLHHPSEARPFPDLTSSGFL

[16] = system: Rattus norvegicus; test: Antinociceptive activity in Sprague-Dawley rat model of capsaicin-induced secondary mechanical hyperalgesia model assessed as attenuation of nociception at 3 to 100 mg/kg, po administered 1 hr before behavioral testing by von Frey filaments test; type: functional, organism-based
[17] = system: Rattus norvegicus; test: Toxicity in orally dosed Sprague-Dawley rat assessed effect on animal balance by Edge test; type: organism-based; details: in vivo, po
[18] = system: Rattus norvegicus; test: Toxicity in orally dosed Sprague-Dawley rat assessed effect on animal motor performance by Edge test; type: organism-based; details: in vivo, po
[19] = system: Plasma; test: Plasma concentration in Sprague-Dawley rat at 30 mg/kg, iv; type: ADME, organism-based; details: in vivo
[20] = system: Rattus norvegicus; test: Cardiovascular toxicity in Sprague-Dawley rat at 30 mg/kg, iv assessed as induction of changes in mean arterial pressure; type: organism-based, Artery; details: in vivo
[21] = system: Rattus norvegicus; test: Cardiovascular toxicity in Sprague-Dawley rat at 30 mg/kg, iv assessed as induction of changes in heart rate; type: organism-based; details: in vivo
[22] = system: Rattus norvegicus; test: Cardiovascular toxicity in Sprague-Dawley rat at 30 mg/kg, iv assessed as induction of changes in left ventricular contractility; type: organism-based, Heart left ventricle; details: in vivo
[23] = system: Rattus norvegicus; test: Cardiovascular toxicity in Sprague-Dawley rat at 30 mg/kg, iv assessed as induction of changes in vascular resistance; type: organism-based; details: in vivo
[24] = system: Rattus norvegicus; test: Antinociceptive activity in Sprague-Dawley rat model of capsaicin-induced secondary mechanical hyperalgesia model assessed as attenuation of nociception at 500 uM/kg, ip administered 1 hr before behavioral testing by von Frey filaments test; type: functional, organism-based

T1 sequence (O95180 whole entry): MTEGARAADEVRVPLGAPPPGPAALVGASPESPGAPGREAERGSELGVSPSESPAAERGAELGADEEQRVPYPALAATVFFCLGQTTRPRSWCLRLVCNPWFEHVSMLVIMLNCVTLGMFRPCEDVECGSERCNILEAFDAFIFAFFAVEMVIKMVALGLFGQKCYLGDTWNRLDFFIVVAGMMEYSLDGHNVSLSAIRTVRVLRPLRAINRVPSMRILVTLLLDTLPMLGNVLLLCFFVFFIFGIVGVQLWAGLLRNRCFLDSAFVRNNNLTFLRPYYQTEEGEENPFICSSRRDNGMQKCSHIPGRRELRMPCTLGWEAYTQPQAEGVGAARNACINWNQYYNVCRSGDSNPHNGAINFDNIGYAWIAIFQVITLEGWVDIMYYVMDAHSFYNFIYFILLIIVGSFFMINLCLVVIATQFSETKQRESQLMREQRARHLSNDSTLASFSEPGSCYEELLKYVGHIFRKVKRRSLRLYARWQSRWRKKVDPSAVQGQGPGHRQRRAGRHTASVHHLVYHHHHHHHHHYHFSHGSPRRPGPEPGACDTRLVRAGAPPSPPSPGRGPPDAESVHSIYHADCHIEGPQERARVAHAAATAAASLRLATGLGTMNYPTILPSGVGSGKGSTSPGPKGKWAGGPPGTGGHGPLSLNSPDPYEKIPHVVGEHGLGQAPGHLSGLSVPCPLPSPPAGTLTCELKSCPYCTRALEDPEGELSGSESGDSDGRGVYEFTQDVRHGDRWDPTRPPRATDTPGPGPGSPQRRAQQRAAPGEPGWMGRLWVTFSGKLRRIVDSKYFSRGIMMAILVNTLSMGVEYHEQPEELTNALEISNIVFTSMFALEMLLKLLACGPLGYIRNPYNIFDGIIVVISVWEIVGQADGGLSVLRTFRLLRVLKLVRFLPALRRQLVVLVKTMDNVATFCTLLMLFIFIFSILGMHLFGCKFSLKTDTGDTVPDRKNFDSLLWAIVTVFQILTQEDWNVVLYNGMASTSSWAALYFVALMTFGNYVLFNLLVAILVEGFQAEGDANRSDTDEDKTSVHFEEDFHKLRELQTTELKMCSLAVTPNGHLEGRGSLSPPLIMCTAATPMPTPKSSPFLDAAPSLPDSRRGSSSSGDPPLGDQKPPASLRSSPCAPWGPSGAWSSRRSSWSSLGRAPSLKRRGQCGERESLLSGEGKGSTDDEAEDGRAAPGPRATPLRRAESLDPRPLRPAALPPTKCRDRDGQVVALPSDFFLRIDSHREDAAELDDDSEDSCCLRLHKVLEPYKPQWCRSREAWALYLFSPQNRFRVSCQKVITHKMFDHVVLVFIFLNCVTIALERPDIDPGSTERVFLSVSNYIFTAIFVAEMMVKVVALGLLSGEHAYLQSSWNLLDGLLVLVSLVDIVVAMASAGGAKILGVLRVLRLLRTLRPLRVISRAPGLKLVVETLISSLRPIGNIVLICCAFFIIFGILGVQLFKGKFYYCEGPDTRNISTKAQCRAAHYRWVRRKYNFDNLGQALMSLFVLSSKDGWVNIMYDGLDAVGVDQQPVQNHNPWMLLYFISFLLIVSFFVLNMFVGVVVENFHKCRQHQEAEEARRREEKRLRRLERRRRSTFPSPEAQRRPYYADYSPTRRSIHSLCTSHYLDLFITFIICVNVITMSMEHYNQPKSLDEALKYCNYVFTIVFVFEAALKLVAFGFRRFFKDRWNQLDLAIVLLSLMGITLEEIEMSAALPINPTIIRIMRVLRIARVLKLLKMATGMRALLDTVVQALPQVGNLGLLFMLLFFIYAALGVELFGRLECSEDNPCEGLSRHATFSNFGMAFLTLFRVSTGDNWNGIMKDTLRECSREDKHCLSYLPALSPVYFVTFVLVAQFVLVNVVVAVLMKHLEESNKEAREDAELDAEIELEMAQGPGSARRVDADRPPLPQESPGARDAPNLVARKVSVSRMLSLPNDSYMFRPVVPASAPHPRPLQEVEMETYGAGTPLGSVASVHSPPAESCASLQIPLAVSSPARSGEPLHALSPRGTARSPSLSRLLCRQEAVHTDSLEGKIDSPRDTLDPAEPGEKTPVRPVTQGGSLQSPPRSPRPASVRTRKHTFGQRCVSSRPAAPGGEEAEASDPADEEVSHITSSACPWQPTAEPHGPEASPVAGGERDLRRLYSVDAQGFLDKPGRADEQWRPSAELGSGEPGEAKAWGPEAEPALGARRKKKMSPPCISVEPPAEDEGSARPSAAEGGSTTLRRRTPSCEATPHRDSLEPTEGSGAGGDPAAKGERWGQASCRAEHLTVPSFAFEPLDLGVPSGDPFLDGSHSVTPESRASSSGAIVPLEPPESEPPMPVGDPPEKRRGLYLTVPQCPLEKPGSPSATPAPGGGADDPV
Sequence of Voltage-dependent T-type calcium channel subunit alpha-1H (Rattus norvegicus, UniProt Q9EQ60) (Q9EQ60 whole entry): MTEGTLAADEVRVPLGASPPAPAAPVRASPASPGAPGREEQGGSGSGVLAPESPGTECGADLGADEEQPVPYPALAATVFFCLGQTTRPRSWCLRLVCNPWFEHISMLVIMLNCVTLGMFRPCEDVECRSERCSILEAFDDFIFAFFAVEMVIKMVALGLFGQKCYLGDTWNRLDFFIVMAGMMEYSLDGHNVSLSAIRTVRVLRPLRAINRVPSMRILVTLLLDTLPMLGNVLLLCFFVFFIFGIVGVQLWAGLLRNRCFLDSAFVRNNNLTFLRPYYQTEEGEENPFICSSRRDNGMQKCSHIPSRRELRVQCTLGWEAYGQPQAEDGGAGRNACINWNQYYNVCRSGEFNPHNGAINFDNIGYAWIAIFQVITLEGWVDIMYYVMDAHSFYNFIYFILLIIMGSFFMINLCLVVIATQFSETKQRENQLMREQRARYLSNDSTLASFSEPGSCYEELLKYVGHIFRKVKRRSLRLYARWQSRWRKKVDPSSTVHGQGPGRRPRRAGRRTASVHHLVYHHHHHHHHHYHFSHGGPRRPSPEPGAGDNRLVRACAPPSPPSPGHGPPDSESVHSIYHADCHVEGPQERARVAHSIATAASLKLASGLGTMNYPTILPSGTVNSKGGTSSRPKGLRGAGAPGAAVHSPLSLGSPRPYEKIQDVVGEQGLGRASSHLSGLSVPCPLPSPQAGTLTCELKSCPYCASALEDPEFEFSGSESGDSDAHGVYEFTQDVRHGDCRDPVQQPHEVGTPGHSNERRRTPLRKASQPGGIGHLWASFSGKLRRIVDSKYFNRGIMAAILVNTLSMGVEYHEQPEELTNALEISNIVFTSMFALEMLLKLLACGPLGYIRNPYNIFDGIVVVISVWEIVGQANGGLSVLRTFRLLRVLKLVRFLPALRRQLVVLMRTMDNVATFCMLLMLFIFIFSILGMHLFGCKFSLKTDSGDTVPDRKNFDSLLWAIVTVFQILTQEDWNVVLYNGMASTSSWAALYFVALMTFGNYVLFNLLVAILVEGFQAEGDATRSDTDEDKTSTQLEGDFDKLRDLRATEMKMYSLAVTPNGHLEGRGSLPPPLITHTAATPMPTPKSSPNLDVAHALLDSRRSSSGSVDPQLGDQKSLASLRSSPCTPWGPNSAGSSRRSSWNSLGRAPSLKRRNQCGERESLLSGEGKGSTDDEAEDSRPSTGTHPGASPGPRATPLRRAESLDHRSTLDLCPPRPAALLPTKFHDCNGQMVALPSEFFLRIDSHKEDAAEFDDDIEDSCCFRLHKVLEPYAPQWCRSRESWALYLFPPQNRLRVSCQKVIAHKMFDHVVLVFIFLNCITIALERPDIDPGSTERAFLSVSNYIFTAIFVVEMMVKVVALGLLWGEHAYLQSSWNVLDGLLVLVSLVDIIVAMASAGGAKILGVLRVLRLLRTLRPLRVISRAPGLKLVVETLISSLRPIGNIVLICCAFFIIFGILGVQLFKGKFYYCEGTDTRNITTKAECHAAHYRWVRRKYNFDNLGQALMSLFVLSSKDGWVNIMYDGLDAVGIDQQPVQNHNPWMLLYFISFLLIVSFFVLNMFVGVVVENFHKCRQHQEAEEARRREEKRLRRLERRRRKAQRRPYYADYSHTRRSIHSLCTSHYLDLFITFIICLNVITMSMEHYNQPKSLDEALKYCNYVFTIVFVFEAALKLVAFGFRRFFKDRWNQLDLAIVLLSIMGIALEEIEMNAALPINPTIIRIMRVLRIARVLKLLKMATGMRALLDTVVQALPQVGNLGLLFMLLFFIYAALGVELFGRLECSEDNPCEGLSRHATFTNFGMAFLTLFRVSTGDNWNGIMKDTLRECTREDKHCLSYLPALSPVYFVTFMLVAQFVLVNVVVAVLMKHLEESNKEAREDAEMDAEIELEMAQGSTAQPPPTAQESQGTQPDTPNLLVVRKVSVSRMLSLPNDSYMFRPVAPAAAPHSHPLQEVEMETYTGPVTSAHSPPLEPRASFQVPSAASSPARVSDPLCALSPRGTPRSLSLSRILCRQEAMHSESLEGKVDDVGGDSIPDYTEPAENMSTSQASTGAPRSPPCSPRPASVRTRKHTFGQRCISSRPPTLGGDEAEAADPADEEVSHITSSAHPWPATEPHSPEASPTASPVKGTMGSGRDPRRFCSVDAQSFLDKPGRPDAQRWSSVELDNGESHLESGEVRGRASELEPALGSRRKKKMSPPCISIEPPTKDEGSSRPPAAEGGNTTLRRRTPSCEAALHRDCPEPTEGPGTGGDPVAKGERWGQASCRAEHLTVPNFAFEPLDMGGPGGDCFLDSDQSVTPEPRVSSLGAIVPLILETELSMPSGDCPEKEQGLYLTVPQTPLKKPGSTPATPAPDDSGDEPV

With O=C(c1cc(S(=O)(=O)Nc2ccccc2F)c(Cl)cc1Cl)N1CCN2CCC[C@@H]2C1 as the compound, how does the IC50 [1] read?
The IC50 was 19 µM.

What does the source list for O=C(c1cccc(S(=O)(=O)Nc2cccc(F)c2F)c1)N1CCN2CCC[C@H]2C1?
clearance [2]: 38 mL/min/kg; inhibition [3]: < 30%

For CN(c1ccccc1F)S(=O)(=O)c1cc(C(=O)N2CCN3CCC[C@@H]3C2)c(Cl)cc1F, which remaining at 0.5 h, 1 µM [4] is on record?
The remaining at 0.5 h, 1 µM was 0.04%.

What about the remaining at 0.5 h, 1 µM [5] of the same compound?
The remaining at 0.5 h, 1 µM was < 0.01%.

For O=C(c1cccc(S(=O)(=O)Nc2ccccc2F)c1)N1CCN2CCC[C@H]2C1, which clearance [2] is on record?
The clearance was 56 mL/min/kg.

And the inhibition [3]?
Its inhibition is < 30%.

Which results are given for Cl.O=C(c1cc(S(=O)(=O)Nc2ccccc2F)c(F)cc1Cl)N1CCN2CCC[C@@H]2C1?
IC50 [1]: 2.3 µM; remaining at 0.5 h, 1 µM [4]: 81%; Vd at 5 µmol/kg [6]: 2.7 L/kg; clearance [2]: 9.17 mL/min/kg; remaining at 0.5 h, 1 µM [5]: 95%; remaining at 0.5 h, 1 µM [7]: 100%; remaining at 0.5 h, 1 µM [8]: 88%; IC50 [9]: 7.6 µM; solubility [10]: 489 µM; solubility [11]: > 9500 µM; fraction unbound [12]: 0.111; fraction unbound [13]: 0.148; EC50 [14]: > 10 µM; EC50 [15]: > 10 µM; Activity [16]: Dose-dependent effect; ED50 [17]: > 300 mg kg-1 and 114 ug ml-1; ED50 [18]: > 300 mg kg-1 and 114 ug ml-1; Cp [19]: 43900 ng/mL; Activity [20]: Non-toxic; Activity [21]: Non-toxic; Activity [22]: Non-toxic; Activity [23]: Non-toxic

What does the source list for O=C(c1cccc(S(=O)(=O)Nc2ccc(C(F)(F)F)cc2)c1)N1CCN2CCC[C@@H]2C1?
clearance [2]: 7.5 mL/min/kg; inhibition [3]: < 30%

Which Activity [24] does the source give for NCC1(CC(=O)O)CCCCC1 here?
The Activity was “Active”.

With CC1Cc2ccccc2N1S(=O)(=O)c1cccc(C(=O)NCC2CCCCC2)c1 (configuration not stated) as the compound, how does the IC50 [1] read?
The IC50 was 5 µM.

And the remaining at 0.5 h, 1 µM [4]?
The remaining at 0.5 h, 1 µM was 0.1%.

Which clearance [2] does the source give for O=C(c1cccc(S(=O)(=O)Nc2ccccc2Cl)c1)N1CCN2CCC[C@@H]2C1 here?
Its clearance is 32.2 mL/min/kg.

And the inhibition [3]?
Its inhibition is < 30%.

For O=C(c1cccc(S(=O)(=O)Nc2ccc(C(F)(F)F)cc2)c1)N1CCN2CCC[C@H]2C1, which clearance [2] is on record?
Its clearance is 13.5 mL/min/kg.

What about the inhibition [3] of the same compound?
The inhibition was < 30%.

Which results are given for O=C(c1cccc(S(=O)(=O)Nc2cccc(F)c2F)c1)N1CCN2CCC[C@@H]2C1?
clearance [2]: 20.2 mL/min/kg; inhibition [3]: < 30%

For O=C(c1cccc(S(=O)(=O)Nc2c(F)cccc2F)c1)N1CCN2CCC[C@@H]2C1, which clearance [2] is on record?
Its clearance is 15.3 mL/min/kg.

And the inhibition [3]?
The inhibition was < 30%.

Which results are given for O=C(c1cccc(S(=O)(=O)Nc2ccccc2F)c1)N1CCN2CCC[C@@H]2C1?
remaining at 0.5 h, 1 µM [4]: 68%; Vd at 5 µmol/kg [6]: 0.65 L/kg; clearance [2]: 29.8 mL/min/kg

Which results are given for CC1CC(C)CN(C(=O)c2cccc(S(=O)(=O)N3c4ccccc4CC3C)c2)C1 (configuration not stated)?
IC50 [1]: 3 µM; remaining at 0.5 h, 1 µM [4]: 0.3%

Which clearance [2] does the source give for O=C(c1cccc(S(=O)(=O)Nc2ccccc2C(F)(F)F)c1)N1CCN2CCC[C@@H]2C1 here?
Its clearance is 12.3 mL/min/kg.

What about the inhibition [3] of the same compound?
The inhibition was < 30%.

With C[C@@H]1CN(C(=O)c2cccc(S(=O)(=O)Nc3ccc(F)cc3)c2)C[C@H](C)O1 as the compound, how does the remaining at 0.5 h, 1 µM [4] read?
The remaining at 0.5 h, 1 µM was 46%.

What about the Vd at 5 µmol/kg [6] of the same compound?
The Vd at 5 µmol/kg was 0.75 L/kg.

And the clearance [2]?
Its clearance is 27.7 mL/min/kg.
